The source of these data is patent publication US20240180955A1, “FIBER SUPPLEMENTATION PROTECTS FROM ANTIBIOTIC-INDUCED GUT MICROBIOME DYSBIOSIS BY MODULATING REDOX METABOLISM” (Brown University, priority 2022, published 2024).

SMILES strings stand for the structures. Where a name gives a salt, the structure may show the parent alone.

Data set [1] deals with E. coli. In words: Amoxicillin kill curve in E. coli. It counts as cell-based, Escherichia coli. The conditions noted are these: aerobic, increasing concentrations of metformin. As to the method:
Bacterial strains. Bacteroides thetaiotaomicron (VPI-5482) can be obtained from the American Type Culture Collection (ATCC; Manassas, VA, USA). Bacteroides theta was cultured in modified Gifu Anaerobic Media (mGAM, HyServe). Escherichia coli (MG1655) was cultured in Luria Broth (Fisher Scientific, Waltham, MA, USA). Anaerobic assays were cultured in a BactronEZ anaerobic chamber (Sheldon Manufacturing, Cornelius, OR, USA) under an atmosphere of 5% H2, […]. All bacteria were grown at 37° C.
Amoxicillin kill curves in E. coli and B. theta. Kill Curves for E. coli were done in an aerobic environment and for B. theta in the anaerobic chamber. Overnight cultures s were grown in Luria Broth (E. coli) or mGAM (B. theta). Overnight cultures were diluted 1:100 in fresh media. They were allowed to grow to 0.2 OD before treatment with amoxicillin and metformin. Samples were grown at 37° C. and plated every two hours for six hours in serial dilutions. Colony forming units (CFUs) were measured the following day.
The inventors then tested the survival of bacteria treated with metformin against amoxicillin. […] These assays were conducted aerobically in E. coli.

For data set [2], the system named is Bacteroides thetaiotaomicron. In words: Amoxicillin kill curve in B. theta. It counts as cell-based. The conditions noted are these: anaerobic.
Description: Bacteroides theta was cultured in modified Gifu Anaerobic Media (mGAM, HyServe). […] Anaerobic assays were cultured in a BactronEZ anaerobic chamber (Sheldon Manufacturing, Cornelius, OR, USA) under an atmosphere of 5% H2, 5% N2, and 90% CO2. All bacteria were grown at 37° C.
Data set [3] deals with E. coli (MG1655). In words: NAD+/NADH reporter: E. coli reporter assay. In kind it is cell-based, Escherichia coli. As to the method: NAD+/NADH reporter: E. coli reporter assay. The NAD+/NADH reporter plasmid (Liu et al., 2019) was transformed into E. coli (MG1655) for growth and fluorescence assays. Overnight cultures of E. coli were diluted 1:1000 in fresh Luria Broth. The diluted cultures were allowed to grow to 0.2 OD before treatment with amoxicillin and metformin. Fluorescence and growth (in OD) were measured in parallel using two plate readers. Data is shown with fluorescence normalized to growth and as separate growth and fluorescence curves.
This ratio is a stand in for cellular bioenergetics with a high ratio indicative of increased catabolism
The inventors then treated these bacteria with metformin and measured their growth and fluorescence. […] Dwyer et al. (2014). […] Stynen et al. (2018).
(In general: In a reporter assay the amount or activity of a reporter protein is the signal.)

Data set [4] deals with gut microbiome. In words: Metformin in vivo supplementation during antibiotic treatment, 16S rRNA sequencing of cecal contents. Set-up: species or system C57BL/6J mice.
Description: Mouse assays. C57BL/6J mice following the habituation period were given one week to acclimate to the control 0-fiber diet with 20% (w/w) glucose. After this diet acclimation period, mice were randomized into new cages for each diet/antibiotic condition. Amoxicillin was administered via drinking water (25 mg/kg/day) ad libitum for the specified timepoints. All drinking water was filter-sterilized before administration. Fecal samples were collected at the specified timepoints and stored at −20° C. until nucleic acid extraction. Cecum contents were collected directly into bead-bashing tubes with DNA/RNA shield (Zymo Research, Irvine, CA, USA) and stored at −80° C. for nucleic acid extraction. For the redox potential (eH) and pH measurements, total cecal contents were immediately flash frozen in liquid nitrogen and lyophilized and stored at −80° C. until measurements were taken.
16S rRNA amplicon preparation and sequencing. The 16S rRNA V4 hypervariable region was amplified from total DNA using the barcoded 515F forward primer and the 806R reverse primers from the Earth Microbiome Project (Thompson et al., 2017). Amplicons were generated using 5× Phusion High-Fidelity DNA Polymerase under these cycling conditions: (1) initial denaturation at 98 °C for thirty seconds, followed by (2) twenty-five cycles of 98 °C for ten seconds, 57 °C for thirty seconds, and 72° C. for thirty seconds, then (3) a final extension at 72 °C for five minutes. Gel electrophoresis was used to visualize amplicons and pooled in equimolar amounts. The pooled amplicon library was submitted to the Rhode Island Genomics and Sequencing Center at the University of Rhode Island (Kingston, RI, USA) for sequencing on the Illumina MiSeq platform. Amplicons were paired-end sequenced (2×250 bp) using the 600-cycle kit with standard protocols. Raw reads were deposited in the NCBI Sequence Read Archive (SRA).
16S sequencing analysis. Raw 16S rRNA reads were first demultiplexed with idemp. Quality filtering, trimming, de-noising with DADA2 (q2-dada2). […] Merging was done using the Qiime2 pipeline (version 2019.10). […] Ribosomal sequence variants were aligned with mafft (q2-alignment). […] Phylogenetic tree construction was done with fasttree2 (q2-phylogeny). […] Taxonomic assignment was conducted using the pre-trained Naive Bayes classifier and the q2-feature-classifier (Bokulich et al., 2018) trained on the SILVA 132 99% database. […] Alpha diversity (Shannon, Faith's phylogenetic diversity) and beta diversity (Bray-Curtis dissimilarity) were calculated using the phyloseq package (version 1.30.0) in R (version 3.6.2).
(§1) Metformin in vivo supplementation. Metformin hydrochloride (Fisher Scientific, Waltham, MA, USA) was added to powdered mouse diet at 100 mg/kg (w/w) or 0.1% in the glucose diet and homogenized before administration to mice via feeding jars. In the chow diet metformin was added 50 mg/kg (w/w) or 0.05%.
The inventors used metformin supplemented diets and supplemented the control low-fiber diet with 100 mg/kg of metformin hydrochloride (MPI Chemicals) during antibiotic treatment for five days.
The inventors then extracted DNA from the cecal contents of mice Day 1 and Day 5 following antibiotic treatment and used 16S rRNA sequencing to investigate changes in gut microbiome composition.
The nature of data set [5]: Mass spectrometry for metformin measurement in serum, liver and cecum. In kind it is in vivo, C57BL/6J mice. The conditions noted are these: low-fiber glucose diet with 100 mg/kg metformin hydrochloride, five days, LC/MS.
Description: as §1
Mass spectrometry for metformin measurement. Plasma, liver and cecal samples were collected for from the sacrificed mice in the two metformin supplementation assays (n=6 mice per group, twenty-four mice/assay). The liver was perfused with phosphate-buffered saline upon collection and the tissue was homogenized with reverse osmosis-purified water at 1 mg/10 μL using a Bead Ruptor at speed 30 for five minutes. Supernatants from the homogenate was collected after centrifugation at 2000×g for five minutes to pellet beads. Cecal contents were also homogenized with reverse osmosis-purified water at 1 mg/10 μL, and supernatants were used for analysis. Metformin extraction and mass spec protocol modified from Chaudhari et al. (2020). For metformin extraction, 30 μL of cecal/tissue homogenates or plasma were added to 70 μL of D6-metformin ([sequence]) at 250 μM concentration in methanol. […]
Metformin in biological samples after spiking with D6-metformin ([sequence]) and extraction was quantitated with HPLC-MS on an Ultimate 3000, Dionex coupled to Q Executive Classic (Thermo Fisher) with ESI interface. […]
Data set [6] in a line: Redox potential (eH) and pH measurements of cecal contents. It counts as in vivo, C57BL/6J mice. The conditions noted are these: mice on standard chow diet. The method, then: Mouse assays. C57BL/6J mice following the habituation period were given one week to acclimate to the control 0-fiber diet with 20% (w/w) glucose. After this diet acclimation period, mice were randomized into new cages for each diet/antibiotic condition. Amoxicillin was administered via drinking water (25 mg/kg/day) ad libitum for the specified timepoints. All drinking water was filter-sterilized before administration. Fecal samples were collected at the specified timepoints and stored at −20° C. until nucleic acid extraction. Cecum contents were collected directly into bead-bashing tubes with DNA/RNA shield (Zymo Research, Irvine, CA, USA) and stored at −80° C. for nucleic acid extraction. […]
Redox potential and pH measurements. Redox potential was measured according to a modified protocol from Husson (2012); Husson et al. (2016) with an Ag/AgCl Reference electrode (Radiometer analytical E21M002, Radiometer Analytical Pt plate electrode 5×5 mm M241 Pt), and a voltmeter. […] The samples were blinded and measured in random order. […]
The platinum electrode was inserted into each sample. […] The same cecal extracts were used to measure pH using a PH meter and for subsequent validation with ATP assays, 16S rRNA sequencing and quantitative polymerase chain reaction (qPCR) bacterial load. […]

The test system of data set [7] is murine gut microbiome. The data set can be described thus: Oats diet with amoxicillin challenge, 16S rRNA sequencing of fecal pellets (Example 11). In kind it is in vivo, C57BL/6J mice. The conditions noted are these: Day 5, across each diet group. The text has this: In Example 11, mice were fed LabDiet 5001 (LD01; LabDiet, St. Louis, MO, USA) feed pellets for a 2-week habituation period. For experimental diets, a custom base diet reflecting standard mouse chow fiber content was designed (Envigo-Teklad, Madison, WI, USA). The base diet modifies AlN-93G (TD.180901) by removing all cellulose and reducing cornstarch content while adjusting micro- and macronutrient contents so the diet could be an 80% base for 20% (wt/wt) supplementation with other carbon sources. Buffalo cornstarch (Ingredion Incorporated, IL, USA) was used to increase host accessibility and reduce cornstarch availability in the cecum and lower gastrointestinal tract. […]
In Example 11, total DNA and RNA was liberated from bacteria by bead-bashing fecal or cecum samples for 5 min on a Bead Ruptor 96 (Omni International, Kennesaw, GA). […] Nucleic acids were eluted in nuclease-free water and measured using the double-stranded DNA high sensitivity (dsDNA-HS) or RNA-HS kits on a Qubit 3.0 fluorometer (Thermo Fisher Scientific, Waltham, MA, USA).
In Example 11, the 16S rRNA gene V4 region was amplified from fecal total DNA using barcoded 515F forward and indexed 806R reverse primers as described by Parada, Needham, & Fuhrman, Environ. […] Amplicons were verified by gel electrophoresis, measured on the Qubit 3.0 and pooled in equimolar concentrations. […]

For `CN(C)C(=N)N=C(N)N` [metformin, Metformin hydrochloride], the “survival of bacteria challenged with amoxicillin” value in data set [1] is given as “improved the survival of bacteria”. For the same compound, in data set [2], the “protection from amoxicillin (kill curve)” value is reported as “significant protection from amoxicillin”. Besides, the “NADH reporter fluorescence (NADH/NAD+ ratio), effect on the antibiotic-induced increase” value in data set [3] (E. coli treated with amoxicillin and metformin) was “suppressed this increase”. For the same compound, the “Desulfobacterota and Cyanobacteria phyla abundance” value in data set [4] (all metformin treatment groups, low-fiber glucose diet and laboratory chow) is listed as “complete depletion”. Further, the “antibiotic-induced decrease in diversity (Shannon)” value in data set [4] (glucose diet with metformin, Day 1 and Day 5 of antibiotic treatment) was “smaller decrease in diversity”. Also, in data set [4] (glucose diet, metformin plus antibiotic, Day 5), the “Proteobacteria at Day 5 of antibiotic treatment” value is given as “bloom in Proteobacteria in the Moraxellaceae family”. Besides, the “bacterial diversity, metformin alone” value in data set [4] (glucose diet, no antibiotics, Day 5) is “significant changes in bacterial diversity”. Further, in data set [4] (glucose low-fiber diet, Day 1), the “initial spike in Proteobacteria during antibiotic treatment” value is “prevented the initial spike in Proteobacteria”. Also, the “reduction in microbial diversity during antibiotic treatment” value in data set [4] (laboratory chow with metformin) is listed as “smaller reduction in microbial diversity”. In addition, the “metformin levels in cecum, liver and serum” value in data set [5] was “significantly higher in the cecum compared to the liver and serum”.

As to `CC1(C)S[C@@H]2[C@H](NC(=O)[C@H](N)c3ccc(O)cc3)C(=O)N2[C@H]1C(=O)O` [amoxicillin, Amoxicillin], the “NADH reporter fluorescence (NADH/NAD+ ratio)” value in data set [3] (E. coli, antibiotic treatment) is “significantly increased fluorescence”. In addition, the “chemical redox of cecal contents” value in data set [6] is recorded as “increased the chemical redox”. The “relative proportion of Bacteroidota and Verrucomicrobiota compared to controls” value in data set [7] is “Bacteroidota receded and that of Verrucomicrobiota increased”.
